The target in test [1] is SARS-CoV-2 3CL pro protein (Severe acute respiratory syndrome coronavirus 2, UniProt P0DTD1). It is filed as binding. As to conditions: 3CL pro protein peak at 278 nm; protein 10^−5 M, compound 10^−4 M.
For the next test, the system named is HCoV-229E. Nature of the test: CPE inhibition of HCoV-229E in vitro (process of first embodiment). The class given is cell-based.
The subject of test [2] is SARS-CoV-2 virus. Nature of the test: Viral titer in lung tissues of novel coronavirus-infected mice. To be noted: positive control 50 mg/kg, fifth day after infection. It is filed as in vivo, ACE2 transgenic C57BL/6 mice. The source says: (§1) Mice: hACE2 mice, 6-7 weeks old, 20-40 g, 120 males in total, laboratory animal supplier: Jiangsu Gempharmatech Co., Ltd.; laboratory animal production license: SOCK (Su) 2018-0008; laboratory animal certificate No.: No.320727201100243581; diets supplier: Jiangsu Medicience Biopharmaceutical Co., Ltd.
(§2) Except for administrating PBS to the mice in the normal group by nasal drip, the mice in other groups were infected with 10^5 PFU of SARS-CoV-2 virus by nasal drip. Two hours after infection, phillyrin was intragastrically administrated to the mice in the administrating groups, once a day, for 5 consecutive days. On the fifth day after infection, the animals were dissected to take lungs for tissue homogenization to test the viral titer. Total RNA was extracted from the supernatant of lung tissue homogenate by Trizol method, and the mRNA expression of related inflammatory factors was detected by RT-qPCR.

In the next test the test system is IFN-γ. Nature of the test: IFN-γ mRNA expression in lung homogenate of infected mice (RT-qPCR). The class given is in vivo, ACE2 transgenic C57BL/6 mice. As to conditions: positive control 50 mg/kg, fifth day after infection.
From the text: as §1, §2

In test [3] the test system is SARS-CoV-2 virus. Nature of the test: Death protection of hACE2 mice infected with novel coronavirus. It is filed as in vivo, hACE2 transgenic C57BL/6 mice. As to conditions: positive control 50 mg/kg.
Protocol: Except for administrating PBS to the mice in the normal group by nasal drip, the mice in other groups were infected with 10^5 PFU of SARS-CoV-2 virus by nasal drip. […] Changes in body weight were recorded every day after infection, and 5-day mortality was calculated.
The next test has as its system IL-1β. Nature of the test: IL-1β mRNA expression in lung homogenate of infected mice (RT-qPCR). The class given is in vivo, ACE2 transgenic C57BL/6 mice. To be noted: positive control 50 mg/kg, fifth day after infection.
From the text: as §1, §2

The subject of a further test is MCP-1. Put plainly: MCP-1 mRNA expression in lung homogenate of infected mice (RT-qPCR). It is filed as in vivo, ACE2 transgenic C57BL/6 mice. As to conditions: positive control 50 mg/kg, fifth day after infection.
From the text: as §1, §2

For a further test, the system named is IFN-α. Nature of the test: IFN-α mRNA expression in lung homogenate of infected mice (RT-qPCR). To be noted: positive control 50 mg/kg, fifth day after infection. It is filed as in vivo, ACE2 transgenic C57BL/6 mice.
From the text: as §1, §2

Where two headings read alike, the source gives them in different places.

As to phillyrin [KD-1], the “change of UV-Vis absorbance of 3CL pro protein after compound was added” value in test [1] was “the absorbance was increased and the peak shifted”. The “inhibitory effect (compared in the same study)” value in the test on HCoV-229E is given as “worse”.
Regarding `COc1cc([C@H]2OC[C@H]3[C@@H]2CO[C@H]3c2ccc(OC)c(OC)c2)ccc1O` [phillygenin], the “inhibitory effect (compared in the same study)” value with HCoV-229E (HCoV-229E, compared with the composition) is given as “worse”.
For the compound `CCC(CC)COC(=O)[C@H](C)N[P@](=O)(OC[C@H]1O[C@@](C#N)(c2ccc3c(N)ncnn23)[C@H](O)[C@@H]1O)Oc1ccccc1` [Remdesivir], the “Viral titer in lung (Log10)” value with SARS-CoV-2 virus [2] is listed as 1.68 ± 0.45 Log10. Further, in the test with IFN-γ, the “IFN-γ mRNA expression in lung homogenate” value was 173.79 ± 84.84. In addition, in the test on SARS-CoV-2 virus [3], the “Mean survival days” value was 4.86 ± 0.38 days and the “Survival rate (%)” value amounted to 87.50%. In the test on IL-1β, the “IL-1β mRNA expression in lung homogenate” value is listed as 7.41 ± 5.86. The “MCP-1 mRNA expression in lung homogenate” value in the test with MCP-1 turned out to be 7.31 ± 5.14. The “IFN-α mRNA expression in lung homogenate” value in the test with IFN-α is on record as 69.99 ± 53.20.
